Laboratory results taken from patent publication EP4032543A1, “PEPTIDES FROM THE SEQUENCE OF THE COMPLEMENT FACTOR D FOR MEDICAL USE, ESPECIALLY FOR THE TREATMENT OF EBV-ASSOCIATED DISEASES” (Fraunhofer-Gesellschaft zur Förderung der angewandten …, priority 2021, dated 2022).

Test system: latently EBV-infected Raji-reporter cells
Assay: Induction of lytic EBV-infection after proviral treatment (expression of ZEBRA)
Assay type: cell-based
Conditions: EBV-positive Raji-reporter cells, 24 hours induction, related to untreated control; PMA at 20 ng/ml; Figure 1
Protocol: The relative induction of the EBV lytic cycle in latently EBV-infected Raji-reporter cells was tested using the human peptide mixture comprising the two complement factor D derived peptide sequences SEQ ID No. 3 and SEQ ID No. 4 (CFD+ peptide mixture) in comparison to the known exogenous proviral substance phorbol-12-myristate13-acetate (PMA), each related to the untreated control. The EBV-positive Raji-reporter cells were treated with the human peptide mixture or with the 20 ng/ml PMA. In a control, cells were not treated with a proviral substance. After 24 hours induction the lytic EBV-infection was compared between treated and non-treated cells via expression of the lytic EBV-immediate early protein ZEBRA. […] Without being bound to the theory, it can be assumed that the pure peptides will result in an even better induction.

## CCCCCCCCCCCCCC(=O)O[C@@H]1[C@@H](C)[C@@]2(O)[C@@H](C=C(CO)C[C@]3(O)C(=O)C(C)=C[C@@H]23)[C@@H]2C(C)(C)[C@]12OC(C)=O [PMA, phorbol-12-myristate13-acetate]
  induction of lytic EBV-infection via expression of the lytic EBV-immediate early protein ZEBRA: resulted in the induction of lytic EBV-infection
